In patent US20200338084A1, “INHIBITORS OF LOW MOLECULAR WEIGHT PROTEIN TYROSINE PHOSPHATASE (LMPTP) AND USES THEREOF” (Sanford Burnham Prebys Medical Discovery Institute, priority 2018, published 2020) one finds IC50 data, which are given here for 45 molecules.

The target in the test is T1, human LMPTP-A (Homo sapiens, UniProt P24666).
T1 sequence (P24666 1-158): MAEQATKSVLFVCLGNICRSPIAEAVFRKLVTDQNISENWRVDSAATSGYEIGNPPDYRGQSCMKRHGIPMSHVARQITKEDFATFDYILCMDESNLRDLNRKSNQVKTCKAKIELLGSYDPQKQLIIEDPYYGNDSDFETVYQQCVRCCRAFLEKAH
Put plainly: Enzyme Assay of Inhibition of LMPTP-A. The format is biochemical. The note with it: phosphatase assay, OMFP or pNPP substrate, 50 mM Bis-Tris pH 6.0, 37° C. As to the method:
Phosphatase assays were performed in buffer containing 50 mM Bis-Tris, pH 6.0, 1 mM DTT and 0.01% Triton X-100 at 37° C. For assays conducted with 3-O-methylfluorescein phosphate (OMFP) as substrate, fluorescence was monitored continuously at λex=485 and λem=525 nm. For assays conducted with para-nitrophenylphosphate (pNPP) as substrate, the reaction was stopped by addition of 2× reaction volume of 1 M NaOH, and absorbance was measured at 405 nm. IC50 values of compounds disclosed herein were determined from plots of inhibitor concentration versus percentage of enzyme activity. For inhibitor selectivity assays, each PTP was incubated with either 0.4 mM OMFP or 5 mM pNPP in the presence of 40 μM compound or DMSO. […] For the inhibitor reversibility assay, 50 nM human LMPTP-A was pre-incubated with 10 μM of compound disclosed herein or DMSO for 5 min. The enzyme was diluted 100× in phosphatase assay buffer containing 0.4 mM OMFP and fluorescence was measured at the indicated time points.

The IC50 is the midpoint of a concentration-inhibition curve. Lower therefore signals greater potency in that assay. For the molecule `Nc1ncn(Cc2ccc(C(F)(F)F)cc2)c2ncnc1-2` [3-(4-(trifluoromethyl)benzyl)-3H-purin-6-amine], the IC50 lay within 1 to 20 µM.

Molecule `N#Cc1ccc(-c2nc3c(N)ncn(Cc4c(Cl)cccc4Cl)c-3n2)s1` [5-(6-amino-3-(2,6-dichlorobenzyl)-3H-purin-8-yl)thiophene-2-carbonitrile] gave an IC50 of no more than 1 µM. In turn, `Nc1ncn(Cc2ccccn2)c2ncnc1-2` [3-Pyridin-2-ylmethyl-3H-purin-6-ylamine] displayed an IC50 of 1 to 20 µM.

In turn, `N#Cc1cccc(-c2nc3c(N)ncn(Cc4c(Cl)cccc4Cl)c-3n2)c1` [3-{6-Amino-3-[(2,6-dichlorophenyl)methyl]-3-hydropurin-8-yl}benzenecarbonitrile] gave a 50% inhibitory concentration (IC50) of no more than 1 µM.

Regarding `Cc1csc(-c2nc3c(N)ncn(Cc4c(Cl)cccc4Cl)c-3n2)c1` [3-[(2,6-Dichlorophenyl)methyl]-8-(4-methyl(2-thienyl))-3-hydropurine-6-ylamine], the IC50 is no less than 20 µM. Consider `CCCc1nc2c(N)ncn(Cc3c(Cl)cccc3Cl)c-2n1` [3-[(2,6-Dichlorophenyl)methyl]-8-propyl-3-hydropurine-6-ylamine], for which the half-inhibitory concentration (IC50) was no more than 1 µM. Under `Nc1ncn(Cc2c(Cl)cccc2Cl)c2nc(-c3cccc(Cl)c3)nc1-2` [3-[(2,6-Dichlorophenyl)methyl]-8-(3-chlorophenyl)-3-hydropurine-6-ylamine] stands no more than 1 µM. `CC(C)(C)c1cccc(Nc2ncn(Cc3c(Cl)cccc3Cl)c3ncnc2-3)c1` [{3-[(2,6-Dichlorophenyl)methyl](3-hydropurin-6-yl)}[3-(tert-butyl)phenyl]amine] registered a half-maximal inhibitory concentration (IC50) of 1 to 20 µM. Under `Nc1ncn(Cc2c(Cl)cccc2Cl)c2nc(-c3ccccc3Cl)nc1-2` [3-[(2,6-Dichlorophenyl)methyl]-8-(2-chlorophenyl)-3-hydropurine-6-ylamine] stands no more than 1 µM; under `CCCNc1ncn(Cc2c(Cl)cccc2Cl)c2ncnc1-2` [[3-(2,6-Dichloro-benzyl)-3H-purin-6-yl]-propyl-amine], 1 to 20 µM; under `FC(F)Oc1ccc(Nc2ncn(Cc3c(Cl)cccc3Cl)c3ncnc2-3)cc1` [3-(2,6-Dichlorobenzyl)-N-(4-(difluoromethoxy)phenyl)-3H-purin-6-amine], 1 to 20 µM. Next, `O=C(Nc1ncn(Cc2c(Cl)cccc2Cl)c2ncnc1-2)c1ccccc1` [N-[3-(2,6-Dichloro-benzyl)-3H-purin-6-yl]-benzamide]: no less than 20 µM; `Cc1ccccc1Nc1ncn(Cc2c(Cl)cccc2Cl)c2ncnc1-2` [{3-[(2,6-Dichlorophenyl)methyl](3-hydropurin-6-yl)}(2-methylphenyl)amine]: 1 to 20 µM.

Turning to `COc1cccc(Cl)c1Cn1cnc(N)c2ncnc1-2` [3-(2-chloro-6-methoxybenzyl)-3H-purin-6-amine], the IC50 was in the range of 1 to 20 µM. Under `Clc1cccc(Cl)c1Cn1cnc(NCc2cnco2)c2ncnc1-2` [[3-(2,6-Dichloro-benzyl)-3H-purin-6-yl]-oxazol-5-ylmethyl-amine] stands 1 to 20 µM. Next, `COc1ccc(Nc2ncn(Cc3c(Cl)cccc3Cl)c3ncnc2-3)cc1` [3-(2,6-Dichlorobenzyl)-N-(4-methoxyphenyl)-3H-purin-6-amine]: 1 to 20 µM; `Nc1ncn(Cc2c(Cl)cccc2Cl)c2nc(Cc3ccc(C(F)(F)F)cc3)nc1-2` [3-[(2,6-dichlorophenyl)methyl]-8-{[4-(trifluoromethyl)phenyl]methyl}-3-hydropurine-6-ylamine]: no more than 1 µM; `Nc1ncn(Cc2c(Cl)cccc2Cl)c2nc(C3CCS(=O)(=O)CC3)nc1-2` [4-{6-Amino-3-[(2,6-dichlorophenyl)methyl]-3-hydropurin-8-yl}thiane-1,1-dione]: no more than 1 µM. Next, `Nc1ncn(Cc2c(Br)cccc2Br)c2ncnc1-2` [3-(2,6-dibromobenzyl)-3H-purin-6-amine]: no more than 1 µM; `Nc1ncn(Cc2c(F)cccc2I)c2ncnc1-2` [3-(2-Fluoro-6-iodo-benzyl)-3H-purin-6-ylamine]: no more than 1 µM. Molecule “8-[(1E)-2-(4-fluorophenyl)vinyl]-3-[(2,6-dichlorophenyl)methyl]-3-hydropurine-6-ylamine” registered a concentration for half-maximal inhibition (IC50) of no more than 1 µM.

In turn, `Nc1ncn(Cc2c(Cl)cccc2Cl)c2nc(-c3ccc4scnc4c3)nc1-2` [8-Benzothiazol-5-yl-3-[(2,6-dichlorophenyl)methyl]-3-hydropurine-6-ylamine] registered an IC50 of no more than 1 µM. In the case of `Nc1ncn(Cc2c(Cl)cccc2Cl)c2nc(-c3ccc(F)cc3F)nc1-2` [3-[(2,6-dichlorophenyl)methyl]-8-(2,4-difluorophenyl)-3-hydropurine-6-ylamine], the IC50 is no more than 1 µM. `Clc1cccc(Cl)c1Cn1cnc(NCc2cccs2)c2ncnc1-2` [[3-(2,6-Dichloro-benzyl)-3H-purin-6-yl]-thiophen-2-ylmethyl-amine] had an IC50 of 1 to 20 µM. Under `N#Cc1ccc(CNc2ncn(Cc3c(Cl)cccc3Cl)c3ncnc2-3)cc1` [4-[({3-[(2,6-dichlorophenyl)methyl]-3-hydropurin-6-yl}amino)methyl]benzenecarbonitrile] stands 1 to 20 µM. Next, `Cc1ccncc1-c1nc2c(N)ncn(Cc3c(Cl)cccc3Cl)c-2n1` [3-[(2,6-Dichlorophenyl)methyl]-8-(4-methyl(3-pyridyl))-3-hydropurine-6-ylamine]: no more than 1 µM. Under `Nc1ncn(Cc2ccc3ccccc3n2)c2ncnc1-2` [3-(quinolin-2-ylmethyl)-3H-purin-6-amine] stands 1 to 20 µM.

`Clc1cccc(Cl)c1Cn1cnc(Nc2ccc(Br)cc2)c2ncnc1-2` [{3-[(2,6-Dichlorophenyl)methyl](3-hydropurin-6-yl)}(4-bromophenyl)amine] came in with an IC50 of 1 to 20 µM. Under `COc1ccccc1Cn1cnc(NCc2ccco2)c2ncnc1-2` [Furan-2-ylmethyl-[3-(2-methoxy-benzyl)-3H-purin-6-yl]-amine] stands no less than 20 µM; under `Cc1cccc(Nc2ncn(Cc3c(Cl)cccc3Cl)c3ncnc2-3)c1` [{3-[(2,6-Dichlorophenyl)methyl](3-hydropurin-6-yl)}(3-methylphenyl)amine], 1 to 20 µM. Next, `Clc1cccc(Cl)c1Cn1cnc(N2CCCCC2)c2ncnc1-2` [3-(2,6-Dichloro-benzyl)-6-piperidin-1-yl-3H-purine]: no less than 20 µM. Under `Nc1ncn(Cc2c(Cl)cccc2Cl)c2nc(C(F)F)nc1-2` [3-[(2,6-dichlorophenyl)methyl]-8-(difluoromethyl)-3-hydropurine-6-ylamine] stands 1 to 20 µM; under `Cc1ccc(-c2nc3c(N)ncn(Cc4c(Cl)cccc4Cl)c-3n2)s1` [3-[(2,6-Dichlorophenyl)methyl]-8-(5-methyl(2-thienyl))-3-hydropurine-6-ylamine], no more than 1 µM; under `O=S(=O)(Cc1cccc(F)c1)Nc1ncn(Cc2c(Cl)cccc2Cl)c2ncnc1-2` [{3-[(2,6-dichlorophenyl)methyl](3-hydropurin-6-yl)}{[(3-fluorophenyl)methyl]sulfonyl}amine], no less than 20 µM. Molecule `FC(F)(F)Oc1cccc(Nc2ncn(Cc3c(Cl)cccc3Cl)c3ncnc2-3)c1` [3-(2,6-Dichlorobenzyl)-N-(3-(trifluoromethoxy)phenyl)-3H-purin-6-amine] gave an IC50 of 1 to 20 µM. Next, `Nc1ncn(Cc2c(Cl)cccc2Cl)c2nc(-c3ccsc3)nc1-2` [3-[(2,6-Dichlorophenyl)methyl]-8-(3-thienyl)-3-hydropurine-6-ylamine]: no more than 1 µM; `Nc1ncn(Cc2c(Cl)cccc2Cl)c2nc(Br)nc1-2` [3-[(2,6-Dichlorophenyl)methyl]-8-bromo-3-hydropurine-6-ylamine]: 1 to 20 µM; `CN(C)C(=O)c1cccc(Nc2ncn(Cc3c(Cl)cccc3Cl)c3ncnc2-3)c1` [3-((3-(2,6-dichlorobenzyl)-3H-purin-6-yl)amino)-N,N-dimethylbenzamide]: 1 to 20 µM.

Consider `Fc1ccc(F)c(Cn2cnc(NCc3ccco3)c3ncnc2-3)c1F` [Furan-2-ylmethyl-[3-(2,3,6-trifluoro-benzyl)-3H-purin-6-yl]-amine], for which the IC50 was no less than 20 µM. Next, `CC(=O)Nc1ncn(Cc2c(Cl)cccc2Cl)c2ncnc1-2` [N-[3-(2,6-Dichloro-benzyl)-3 H-purin-6-yl]-acetamide]: 1 to 20 µM; `CCCCNc1ncn(Cc2c(Cl)cccc2Cl)c2ncnc1-2` [Butyl-[3-(2,6-dichloro-benzyl)-3H-purin-6-yl]-amine]: 1 to 20 µM; `CN(C)c1ccc(Nc2ncn(Cc3c(Cl)cccc3Cl)c3ncnc2-3)cc1` [N1-(3-(2,6-dichlorobenzyl)-3H-purin-6-yl)-N4,N4-dimethylbenzene-1,4-diamine]: 1 to 20 µM. Under `Cn1nccc1-c1nc2c(N)ncn(Cc3c(Cl)cccc3Cl)c-2n1` [3-[(2,6-Dichlorophenyl)methyl]-8-(1-methylpyrazol-5-yl)-3-hydropurine-6-ylamine] stands no more than 1 µM; under `Fc1cccc(F)c1Cn1cnc(NCc2ccco2)c2ncnc1-2` [[3-(2,6-Difluoro-benzyl)-3H-purin-6-yl]-furan-2-ylmethyl-amine], 1 to 20 µM. Under `Fc1ccc(Nc2ncn(Cc3c(Cl)cccc3Cl)c3ncnc2-3)cc1` [{3-[(2,6-Dichlorophenyl)methyl](3-hydropurin-6-yl)}(4-fluorophenyl)amine] stands 1 to 20 µM.
